#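 1) Cells in 96-well plates. 2) Compound, 48 h, 5 concentrations. 3) Linear interpolation between surrounding doses. 4) Unreached endpoint = highest concentration. GI50 marks 50% less growth. At the TGI there is no net growth.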
# Experiments:
# Assay in all cases: NCI-60 cell line screen, 48 h
# 786-0 renal = system: 786-0 renal
# A498 renal = system: A498 renal
# A549 NSCLC = system: A549 NSCLC
# ACHN renal = system: ACHN renal
# BT-549 breast = system: BT-549 breast
# CAKI-1 renal = system: CAKI-1 renal
# CCRF-CEM leukemia = system: CCRF-CEM leukemia
# COLO 205 colon = system: COLO 205 colon
# DU-145 prostate = system: DU-145 prostate
# EKVX NSCLC = system: EKVX NSCLC
# HCC-2998 colon = system: HCC-2998 colon
# HCT-116 colon = system: HCT-116 colon
# HCT-15 colon = system: HCT-15 colon
# HL-60(TB) leukemia = system: HL-60(TB) leukemia
# HOP-62 NSCLC = system: HOP-62 NSCLC
# HOP-92 NSCLC = system: HOP-92 NSCLC
# HS 578T breast = system: HS 578T breast
# HT29 colon = system: HT29 colon
# IGROV1 ovarian = system: IGROV1 ovarian
# K-562 leukemia = system: K-562 leukemia
# KM12 colon = system: KM12 colon
# LOX IMVI melanoma = system: LOX IMVI melanoma
# M14 melanoma = system: M14 melanoma
# MALME-3M melanoma = system: MALME-3M melanoma
# MCF7 breast = system: MCF7 breast
# MDA-MB-231 breast = system: MDA-MB-231 breast
# MDA-MB-435 = system: MDA-MB-435
# MOLT-4 leukemia = system: MOLT-4 leukemia
# NCI-H226 lung = system: NCI-H226 lung
# NCI-H23 lung = system: NCI-H23 lung
# NCI-H460 lung = system: NCI-H460 lung
# NCI-H522 lung = system: NCI-H522 lung
# NCI/ADR-RES ovarian = system: NCI/ADR-RES ovarian
# OVCAR-3 ovarian = system: OVCAR-3 ovarian
# OVCAR-4 ovarian = system: OVCAR-4 ovarian
# OVCAR-5 ovarian = system: OVCAR-5 ovarian
# OVCAR-8 ovarian = system: OVCAR-8 ovarian
# PC-3 prostate = system: PC-3 prostate
# RPMI-8226 leukemia = system: RPMI-8226 leukemia
# SF-268 CNS = system: SF-268 CNS
# SF-295 CNS = system: SF-295 CNS
# SF-539 CNS = system: SF-539 CNS
# SK-MEL-2 melanoma = system: SK-MEL-2 melanoma
# SK-MEL-28 melanoma = system: SK-MEL-28 melanoma
# SK-MEL-5 melanoma = system: SK-MEL-5 melanoma
# SK-OV-3 ovarian = system: SK-OV-3 ovarian
# SN12C renal = system: SN12C renal
# SNB-19 CNS = system: SNB-19 CNS
# SNB-75 CNS = system: SNB-75 CNS
# SR leukemia = system: SR leukemia
# SW-620 colon = system: SW-620 colon
# T-47D breast = system: T-47D breast
# TK-10 renal = system: TK-10 renal
# U251 CNS = system: U251 CNS
# UACC-257 melanoma = system: UACC-257 melanoma
# UACC-62 melanoma = system: UACC-62 melanoma
# UO-31 renal = system: UO-31 renal
structure (smiles),measurement,setting,value
CN1CCN(c2ccc(Nc3nc(NCCCNS(=O)(=O)c4cccc(F)c4)c4sccc4n3)cc2)CC1,GI50,786-0 renal,2.47 µM
same,TGI,786-0 renal,6.25 µM
same,GI50,A498 renal,10.9 µM
same,TGI,A498 renal,23 µM
same,GI50,A549 NSCLC,10 µM
same,TGI,A549 NSCLC,23.7 µM
same,GI50,ACHN renal,4.49 µM
same,TGI,ACHN renal,16.2 µM
same,GI50,BT-549 breast,8.19 µM
same,TGI,BT-549 breast,23.9 µM
same,GI50,CAKI-1 renal,10.8 µM
same,TGI,CAKI-1 renal,22.6 µM
same,GI50,CCRF-CEM leukemia,3.99 µM
same,TGI,CCRF-CEM leukemia,> 100 µM
same,GI50,COLO 205 colon,3.61 µM
same,TGI,COLO 205 colon,16.1 µM
same,GI50,DU-145 prostate,10.5 µM
same,TGI,DU-145 prostate,23 µM
same,GI50,EKVX NSCLC,9.48 µM
same,TGI,EKVX NSCLC,21.3 µM
same,GI50,HCC-2998 colon,4.35 µM
same,TGI,HCC-2998 colon,15.5 µM
same,GI50,HCT-116 colon,3.73 µM
same,TGI,HCT-116 colon,16.4 µM
same,GI50,HCT-15 colon,2.18 µM
same,TGI,HCT-15 colon,6.88 µM
same,GI50,HL-60(TB) leukemia,1.78 µM
same,TGI,HL-60(TB) leukemia,3.74 µM
same,GI50,HOP-62 NSCLC,14.8 µM
same,TGI,HOP-62 NSCLC,29 µM
same,GI50,HOP-92 NSCLC,3.37 µM
same,TGI,HOP-92 NSCLC,17.1 µM
same,GI50,HS 578T breast,3.72 µM
same,TGI,HS 578T breast,34.4 µM
same,GI50,HT29 colon,2.18 µM
same,TGI,HT29 colon,5.14 µM
same,GI50,IGROV1 ovarian,7.33 µM
same,TGI,IGROV1 ovarian,20.9 µM
same,GI50,K-562 leukemia,1.43 µM
same,TGI,K-562 leukemia,9.8 µM
same,GI50,KM12 colon,10.8 µM
same,TGI,KM12 colon,40.5 µM
same,GI50,LOX IMVI melanoma,1.74 µM
same,TGI,LOX IMVI melanoma,3.58 µM
same,GI50,M14 melanoma,1.78 µM
same,TGI,M14 melanoma,3.69 µM
same,GI50,MALME-3M melanoma,1.8 µM
same,TGI,MALME-3M melanoma,3.25 µM
same,GI50,MCF7 breast,3.52 µM
same,TGI,MCF7 breast,14.3 µM
same,GI50,MDA-MB-231 breast,3.54 µM
same,TGI,MDA-MB-231 breast,12.7 µM
same,GI50,MDA-MB-435,3.01 µM
same,TGI,MDA-MB-435,11.3 µM
same,GI50,MOLT-4 leukemia,1.34 µM
same,TGI,MOLT-4 leukemia,12.8 µM
same,GI50,NCI-H226 lung,6.63 µM
same,TGI,NCI-H226 lung,20.1 µM
same,GI50,NCI-H23 lung,11.7 µM
same,TGI,NCI-H23 lung,25.7 µM
same,GI50,NCI-H460 lung,3.81 µM
same,TGI,NCI-H460 lung,14.6 µM
same,GI50,NCI-H522 lung,3.2 µM
same,TGI,NCI-H522 lung,14.1 µM
same,GI50,NCI/ADR-RES ovarian,13.9 µM
same,TGI,NCI/ADR-RES ovarian,38.5 µM
same,GI50,OVCAR-3 ovarian,3.59 µM
same,TGI,OVCAR-3 ovarian,15.3 µM
same,GI50,OVCAR-4 ovarian,3.45 µM
same,TGI,OVCAR-4 ovarian,14.7 µM
same,GI50,OVCAR-5 ovarian,10.2 µM
same,TGI,OVCAR-5 ovarian,22.3 µM
same,GI50,OVCAR-8 ovarian,5.67 µM
same,TGI,OVCAR-8 ovarian,23.2 µM
same,GI50,PC-3 prostate,6.87 µM
same,TGI,PC-3 prostate,25.1 µM
same,GI50,RPMI-8226 leukemia,2.85 µM
same,TGI,RPMI-8226 leukemia,13.9 µM
same,GI50,SF-268 CNS,6.41 µM
same,TGI,SF-268 CNS,24.9 µM
same,GI50,SF-295 CNS,3.74 µM
same,TGI,SF-295 CNS,13.8 µM
same,GI50,SF-539 CNS,1.67 µM
same,TGI,SF-539 CNS,3.18 µM
same,GI50,SK-MEL-2 melanoma,12.8 µM
same,TGI,SK-MEL-2 melanoma,25.9 µM
same,GI50,SK-MEL-28 melanoma,1.61 µM
same,TGI,SK-MEL-28 melanoma,3.08 µM
same,GI50,SK-MEL-5 melanoma,3.49 µM
same,TGI,SK-MEL-5 melanoma,12 µM
same,GI50,SK-OV-3 ovarian,17.3 µM
same,TGI,SK-OV-3 ovarian,32.3 µM
same,GI50,SN12C renal,11.5 µM
same,TGI,SN12C renal,23.8 µM
same,GI50,SNB-19 CNS,7.7 µM
same,TGI,SNB-19 CNS,20.2 µM
same,GI50,SNB-75 CNS,11.5 µM
same,TGI,SNB-75 CNS,23.9 µM
same,GI50,SR leukemia,1.79 µM
same,TGI,SR leukemia,5.5 µM
same,GI50,SW-620 colon,4.12 µM
same,TGI,SW-620 colon,17.2 µM
same,GI50,T-47D breast,10.9 µM
same,TGI,T-47D breast,31.1 µM
same,GI50,TK-10 renal,14.5 µM
same,TGI,TK-10 renal,28.2 µM
same,GI50,U251 CNS,3.31 µM
same,TGI,U251 CNS,13.5 µM
same,GI50,UACC-257 melanoma,1.86 µM
same,TGI,UACC-257 melanoma,3.81 µM
same,GI50,UACC-62 melanoma,2.46 µM
same,TGI,UACC-62 melanoma,7.07 µM
same,GI50,UO-31 renal,10.1 µM
same,TGI,UO-31 renal,21.7 µM
